In one data set the target is Calcineurin (Homo sapiens, UniProt P62937+P63098+Q08209). As to the kind of experiment: Calcineurin Phosphatase (CaN) Assay with Cyp A (+CypA). The following applies: read-out: Calcineurin Phosphatase (CaN) Assay (+CypA) IC50, in the presence of Cyp A.
For data set [1], the target named is T1, Human recombinant cyclophilin A (Cyp A) (Homo sapiens, UniProt P62937). As to the kind of experiment: Protease-free PPIase assay.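 Note: cis to trans isomerization of SUC-AAPF-pNA by 2 nM enzyme, read as absorbance at 330 nm over 300 s at 10 °C, catalytic rate corrected for uncatalyzed background.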 The following applies: read-out: Protease-free PPIase Assay Ki.
Data set [2] can be described thus: Water Solubility Assay (measured in pH 7.8 buffer).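 Note: precipitation onset detected as rise in absorbance at 650 nm across increasing concentrations, after shaking for 18 h, blank wells receiving DMSO only.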 Format: physicochemical.
The target in data set [3] is T1, Human recombinant cyclophilin A (Cyp A).
Setting [4] is: Cyclophilin A (Cyp A) inhibitory activity.
Where [5] appears, read: 35 mM HEPES pH 7.8, 1% DMSO, 25 °C, 18 h, read-out: Water Solubility Assay, concentration at which the compound remains in solution.

The results in this text go back to US20160039880A1 (priority 2012, published 2016).

Molecules are shown by their SMILES. Where two headings read alike, the source gives them in different places. Starred links: 1 amine or outer side, 2 acyl side, 3 side chain; linkers in the order of their positions; H or OH if unused. Non-standard residues stand in square brackets, D forms with d. Residues, ends and D or L forms follow the SMILES beside them. X2 = CC(CCN1CCOCC1)C(O)C(C(=O)[*:2])N(C)[*:1]; X1 = CCN(C(C(=O)[*:2])C(C)C)[*:1]; NMeL = CN[CH](CC(C)C)C(=O)O; NMeV = CN[CH](C(=O)O)C(C)C; NMeA = CN[CH](C)C(=O)O; Abu = CC[CH](N)C(=O)O

T1 sequence (P62937 whole entry): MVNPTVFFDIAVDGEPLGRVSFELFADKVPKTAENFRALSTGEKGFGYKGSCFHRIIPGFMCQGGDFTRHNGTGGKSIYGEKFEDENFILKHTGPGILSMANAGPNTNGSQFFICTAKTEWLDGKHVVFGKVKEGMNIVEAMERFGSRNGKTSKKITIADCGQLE
Sequence of Calcineurin (P63098 whole entry, other chains not shown): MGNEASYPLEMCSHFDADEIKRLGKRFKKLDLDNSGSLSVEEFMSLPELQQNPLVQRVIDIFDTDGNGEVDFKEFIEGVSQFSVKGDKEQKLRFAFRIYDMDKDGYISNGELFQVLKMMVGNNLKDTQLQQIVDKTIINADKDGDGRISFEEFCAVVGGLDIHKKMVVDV
Sequence of Calcineurin (P62937 whole entry, other chains not shown): as the sequence (P62937 whole entry) above

For the molecule `CCC1NC(=O)C(C(O)C(C)CCN2CCCCC2C(F)(F)F)N(C)C(=O)C(C(C)C)N(C)C(=O)C(CC(C)C)N(C)C(=O)C(CC(C)C)N(C)C(=O)C(C)NC(=O)C(C)NC(=O)C(CC(C)C)N(C)C(=O)C(C(C)C)NC(=O)C(CC(C)C)N(C)C(=O)C(C)N(C)C1=O` (mixture of isomers) [Compound EB, [(3R,4R,5S)-4-Hydroxy-3-methyl-5-(methylamino)-1-(2-trifluoromethyl-piperidin-1-yl)-hexanoic acid]^1[(R)-methyl-Sar]^3 cyclosporin A], the IC50 at Calcineurin was > 10000 nM. In data set [1] (setting [4]), the Ki turned out to be 3.7 nM.

As for `CCC1NC(=O)C(C(O)C(C)CCN2CCOCC2C(F)(F)F)N(C)C(=O)C(C(C)C)N(C)C(=O)C(CC(C)C)N(C)C(=O)C(CC(C)C)N(C)C(=O)C(C)NC(=O)C(C)NC(=O)C(CC(C)C)N(C)C(=O)C(C(C)C)NC(=O)C(CC(C)C)N(C)C(=O)C(C)N(C)C1=O` (mixture of isomers) [Compound EC, [(3R,4R,5S)-4-Hydroxy-3-methyl-5-(methylamino)-1-(3-trifluoromethyl-morpholin-4-yl)-hexanoic acid]^1[(R)-methyl-Sar]^3 cyclosporin A], the half-inhibitory concentration (IC50) on Calcineurin was > 10000 nM. Moreover, in data set [1] (setting [4]), the Ki was determined as 5.2 nM.

For `CC[C@H]1NC(=O)[C@@H]([C@H](O)[C@H](C)CCN2C[C@H]3CN(C)C[C@H]3C2)N(C)C(=O)[C@@H](C(C)C)N(C)C(=O)[C@@H](CC(C)C)N(C)C(=O)[C@@H](CC(C)C)N(C)C(=O)[C@H](C)NC(=O)[C@@H](C)NC(=O)[C@@H](CC(C)C)N(C)C(=O)[C@@H](C(C)C)NC(=O)[C@H](CC(C)C)N(C)C(=O)[C@@H](C)N(C)C1=O` (relative stereo) [Compound O, [(3R,4R,5S)-4-Hydroxy-3-methyl-5-(methylamino)-1-(N-(3aR*,6aS*)-2-methyloctahydropyrrolo[3,4-c]pyrrolo)-hexanoic acid]^1[(R)-methyl-Sar]^3 cyclosporin A], the IC50 at Calcineurin (1:1 complex with inhibitor) is > 10000 nM. Moreover, the Ki in data set [1] (cyclophilin A, 10 °C) was found to be 8.2 nM. Also, in data set [2] (setting [5]), the solubility at 18 h is listed as >100 µM.

Take `CC[C@@H]1NC(=O)[C@H]([C@H](O)[C@H](C)CCCC(=O)N2C[C@H]3CN(C)C[C@H]3C2)N(C)C(=O)[C@H](C(C)C)N(C)C(=O)[C@H](CC(C)C)N(C)C(=O)[C@H](CC(C)C)N(C)C(=O)[C@@H](C)NC(=O)[C@H](C)NC(=O)[C@H](CC(C)C)N(C)C(=O)[C@H](C(C)C)NC(=O)[C@H](CC(C)C)N(C)C(=O)[C@@H](C)N(C)C1=O` (relative stereo) [Compound ZZ, [(5R,6R,7S)-6-hydroxy-5-methyl-7-(methylamino)-1-(N-(3aR*,6aS*)-2-methyloctahydropyrrolo[3,4-c]pyrrolo)-1-oxo-octanoic acid]1[(R)-methyl-Sar]3 cyclosporin A]: at Calcineurin (1:1 complex with inhibitor), the IC50 was > 10000 nM. The Ki in data set [1] (cyclophilin A, 10 °C) was 2.6 nM. Also, in data set [2] (setting [5]), the solubility at 18 h is listed as >100 µM.

Consider `CCC1NC(=O)C(C(O)C(C)CCN2CCOCC2)N(C)C(=O)C(C(C)C)N(C)C(=O)C(CC(C)C)N(C)C(=O)C(CC(C)C)N(C)C(=O)C(C)NC(=O)C(C)NC(=O)C(CC(C)C)N(C)C(=O)C(C(C)C)NC(=O)C(CC(C)C)N(C)C(=O)C(CC)N(C)C1=O` [Compound AB, [(3R,4R,5S)-4-hydroxy-3-methyl-5-(methylamino)-1-N-morpholino-hexanoic acid]^1[(R)-ethyl-Sar]^3 cyclosporin A], for which, at Calcineurin (1:1 complex with inhibitor), the IC50 is > 10000 nM. Further, in data set [1] (cyclophilin A, 10 °C), the inhibitory constant (Ki) stood at 5.6 nM. Besides, the solubility at 18 h in data set [2] (setting [5]) is listed as >100 µM.

As for `CC[C@H]1NC(=O)[C@@H]([C@H](O)[C@H](C)CCN2CCOCC2)N(C)C(=O)[C@@H](C(C)C)N(C)C(=O)[C@@H](CC(C)C)N(C)C(=O)[C@@H](CC(C)C)N(C)C(=O)[C@H](C)NC(=O)[C@@H](C)NC(=O)[C@@H](CC(C)C)N(C)C(=O)[C@@H](C(C)C)NC(=O)[C@H](CC(C)C)N(C)C(=O)[C@@H](CSCCN(CC)CC)N(C)C1=O` [Compound AC, [(3R,4R,5S)-4-Hydroxy-3-methyl-5-(methylamino)-1-N-morpholino-hexanoic acid]^1[(S)-2-diethylaminoethylthiomethyl-Sar]^3 cyclosporin A], the IC50 at Calcineurin (1:1 complex with inhibitor) was > 10000 nM. Further, the Ki in data set [1] (cyclophilin A, 10 °C) is 7.5 nM. In data set [2] (setting [5]), the solubility at 18 h is reported as >100 µM.

Regarding `CCC1NC(=O)C(C(O)C(C)CCN2CCCOCC2)N(C)C(=O)C(C(C)C)N(C)C(=O)C(CC(C)C)N(C)C(=O)C(CC(C)C)N(C)C(=O)C(C)NC(=O)C(C)NC(=O)C(CC(C)C)N(C)C(=O)C(C(C)C)NC(=O)C(CC(C)C)N(C)C(=O)C(COCCN(CC)CC)N(C)C1=O` [Compound AD, [(3R,4R,5S)-4-Hydroxy-3-methyl-5-(methylamino)-1-N-homomorpholino-hexanoic acid]^1[(R)-2-diethylaminoethyloxymethyl-Sar]^3 cyclosporin A], the IC50 at Calcineurin (1:1 complex with inhibitor) was > 10000 nM. Besides, in data set [1] (cyclophilin A, 10 °C), the Ki is 18 nM.

With `CC[C@H]1NC(=O)[C@@H]([C@H](O)[C@H](C)CCCC(=O)N2CCOCC2)N(C)C(=O)[C@@H](C(C)C)N(C)C(=O)[C@@H](CC(C)C)N(C)C(=O)[C@@H](CC(C)C)N(C)C(=O)[C@H](C)NC(=O)[C@@H](C)NC(=O)[C@@H](CC(C)C)N(C)C(=O)[C@@H](C(C)C)NC(=O)[C@H](CC(C)C)N(C)C(=O)CN(C)C1=O` [Compound E, [(5R,6R,7S)-6-hydroxy-5-methyl-7-(methylamino)-1-N-morpholino-1-oxo-octanoic acid]^1 cyclosporin A], the IC50 at Calcineurin (1:1 complex with inhibitor) is > 10000 nM.

For `CCC1NC(=O)C(C(O)C(C)CCN2CCCCO2)N(C)C(=O)C(C(C)C)N(C)C(=O)C(CC(C)C)N(C)C(=O)C(CC(C)C)N(C)C(=O)C(C)NC(=O)C(C)NC(=O)C(CC(C)C)N(C)C(=O)C(C(C)C)NC(=O)C(CC(C)C)N(C)C(=O)C(C)N(C)C1=O` [Compound ED, [(3R,4R,5S)-4-Hydroxy-3-methyl-5-(methylamino)-1-([1,2]oxazinan-2-yl)-hexanoic acid]^1[(R)-methyl-Sar]^3 cyclosporin A], at Calcineurin, the IC50 was > 10000 nM. Besides, the Ki in data set [1] (setting [4]) was 3.8 nM.

Regarding `CCC1NC(=O)C(C(O)C(C)CCN2CCn3cc(C(F)(F)F)nc3C2)N(C)C(=O)C(C(C)C)N(C)C(=O)C(CC(C)C)N(C)C(=O)C(CC(C)C)N(C)C(=O)C(C)NC(=O)C(C)NC(=O)C(CC(C)C)N(C)C(=O)C(C(C)C)NC(=O)C(CC(C)C)N(C)C(=O)C(C)N(C)C1=O` [Compound EE, [(3R,4R,5S)-4-Hydroxy-3-methyl-5-(methylamino)-1-(2-trifluoromethyl-5,6-dihydro-8H-imidazo[1,2-a]pyrazin-7-yl)-hexanoic acid]^1[(R)-methyl-Sar]^3 cyclosporin A], at Calcineurin, the IC50 was > 10000 nM. Besides, in data set [1] (setting [4]), the Ki is 9.1 nM.

Regarding `CCC1NC(=O)C(C(O)C(C)CCN2CCOCC2)N(C)C(=O)C(C(C)C)N(C)C(=O)C(CC(C)C)N(C)C(=O)C(CC(C)C)N(C)C(=O)C(C)NC(=O)C(C)NC(=O)C(CC(C)C)N(C)C(=O)C(C(C)C)NC(=O)C(C(C)C)N(CC)C(=O)C(C)N(C)C1=O` [Compound EJ, [(3R,4R,5S)-4-Hydroxy-3-methyl-1-(morpholin-4-yl)-hexanoic acid]^1[(R)-methyl-Sar]^3[Ethyl-Val]^4 cyclosporin A] (cyclo([X1]V[NMeL]AA[NMeL][NMeL][NMeV][X2][Abu][NMeA]); configuration not given here), the IC50 on Calcineurin was > 10000 nM. Also, the inhibitory constant (Ki) in data set [1] (setting [4]) is 9 nM. In addition, in data set [2] (pH 7.8 buffer, read-out: Water Solubility Assay), the solubility at 18 h was >100 µM.

`CC[C@H]1NC(=O)[C@@H]([C@H](O)[C@H](C)CCN2CCOCC2)N(C)C(=O)[C@@H](C(C)C)N(C)C(=O)[C@@H](CC(C)C)N(C)C(=O)[C@@H](CC(C)C)N(C)C(=O)[C@H](C)NC(=O)[C@@H](C)NC(=O)[C@@H](CC(C)C)N(C)C(=O)[C@@H](C(C)C)NC(=O)[C@H](CC(C)C)N(C)C(=O)[C@@H](SC)N(C)C1=O` [Compound K, [(3R,4R,5S)-4-hydroxy-3-methyl-5-(methylamino)-1-N-morpholino-hexanoic acid]^1[(S)-thiomethyl-Sar]^3 cyclosporin A]: at Calcineurin (1:1 complex with inhibitor), the IC50 was > 10000 nM.

`CC[C@H]1NC(=O)[C@@H]([C@H](O)[C@H](C)CCCC(=O)N(CC)CC)N(C)C(=O)[C@@H](C(C)C)N(C)C(=O)[C@@H](CC(C)C)N(C)C(=O)[C@@H](CC(C)C)N(C)C(=O)[C@H](C)NC(=O)[C@@H](C)NC(=O)[C@@H](CC(C)C)N(C)C(=O)[C@@H](C(C)C)NC(=O)[C@H](CC(C)C)N(C)C(=O)[C@@H](C)N(C)C1=O` [Compound U, [(5R,6R,7S)-6-hydroxy-5-methyl-7-(methylamino)-1-diethylamino-1-oxo-octanoic acid]^1[(R)-methyl-Sar]^3 cyclosporin A]: the IC50 at Calcineurin (1:1 complex with inhibitor) was > 10000 nM. Besides, the Ki in data set [1] (cyclophilin A, 10 °C) came to 4 nM.

As for `CC[C@H]1NC(=O)[C@@H]([C@H](O)[C@H](C)CCCC(=O)NCC2COCCO2)N(C)C(=O)[C@@H](C(C)C)N(C)C(=O)[C@@H](CC(C)C)N(C)C(=O)[C@@H](CC(C)C)N(C)C(=O)[C@H](C)NC(=O)[C@@H](C)NC(=O)[C@@H](CC(C)C)N(C)C(=O)[C@@H](C(C)C)NC(=O)[C@H](CC(C)C)N(C)C(=O)[C@@H](C)N(C)C1=O` (stereo partly drawn) [Compound ZX], the Ki in data set [3] is 2.3 nM. Moreover, in data set [2] (setting [5]), the solubility at 18 h was >100 µM.

For the molecule `CC[C@H]1NC(=O)[C@@H]([C@H](O)[C@H](C)CCCC(=O)NCCOC)N(C)C(=O)[C@@H](C(C)C)N(C)C(=O)[C@@H](CC(C)C)N(C)C(=O)[C@@H](CC(C)C)N(C)C(=O)[C@H](C)NC(=O)[C@@H](C)NC(=O)[C@@H](CC(C)C)N(C)C(=O)[C@@H](C(C)C)NC(=O)[C@H](CC(C)C)N(C)C(=O)[C@@H](C)N(C)C1=O` [Compound ZY, [(5R,6R,7S)-6-hydroxy-5-methyl-7-(methylamino)-1-(2-methoxyethylamino)-1-oxo-octanoic acid]1[(R)-methyl-Sar]3 cyclosporin A], the Ki in data set [3] was 5.7 nM. The “Water Solubility Assay, concentration at which the compound remains in solution” value in data set [2] (35 mM HEPES pH 7.8, 1% DMSO, 25 °C, 18 h) was in the range of 75 to 100 µM.

A word on the IC50: it is the concentration needed to halve the response being measured. As a reminder, the Ki is the equilibrium dissociation constant of an inhibitor or competing ligand from its target.
